Assay results as given in patent publication US20230365556A1, “N-ACYL AMINO ACID COMPOUNDS AND METHODS OF USE” (Pliant Therapeutics, Inc., priority 2016, published 2023).
Structures can show the parent of a compound that is named as a salt.

Target: αvβ1 integrin (αvβ1 expressing CHO cells) (Homo sapiens (Human), UniProt P05556+P06756)
Assay: Cell adhesion assay: inhibition of αvβ1 expressing CHO cells attaching to TGFβ1LAP
Format: cell-based
Conditions: 1 h at 37° C., crystal violet absorbance 595 nm, read-out: αvβ1 Inhibition IC50 (nM)-range
Procedure: Example B1—Cell Adhesion Assay
In order to determine the potency, the compounds were assessed for their ability to inhibit αvβ1 expressing CHO cells attach to TGFβ1LAP. Microplates were coated overnight with 2 ug/ml TGFβ1LAP at 4° C., and blocked with 2% BSA/PBS for 30 min before the assay. Cells were detached and washed in PBS. After that the cells were resuspended in DMEM at 1.0×10^6 cells/ml, fifty microliter of cell suspension and fifty microliter of compound solution were added into the plate. The plates were incubated for one hour at 37° C. in humidified 5% carbon dioxide. Non-adherent cells were removed by centrifugation top side down at 58 g for 5 min. The attached cells were fixed and stained with 0.5% crystal violet (in 20% methanol and 1% formaldehyde) and the wells washed with PBS. Crystal violet was dissolved in 2% Triton-X in PBS. The relative number of cells in each well was evaluated by the absorbance at 595 nm in a microplate reader (Tecan). IC50 values were determined by non-linear regression with four parameters (Graphpad Prism 7.01, Y=Bottom+(Top−Bottom)/(1+10^((Log IC50−X)*HillSlope)).
The compounds tested were compound samples prepared according to procedures described in the Synthetic Examples section, with the stereochemical purity as indicated in the Examples indicated for Example or Compound No. 1-62. The compounds tested were predominantly S-configuration at the alpha carbon of the amino acid scaffold, except for compounds 123, 124, and 125 which were predominantly R-configuration at the alpha carbon of the amino acid scaffold. “Example or Compound No.” in Table B-1 refers to the compound illustrated in the examples for Example or Compound Nos. 1-62 (the compounds of Examples 1-62 are labeled as Compounds 1-62 in Table 1). “Example or Compound No.” in Table B-1 refers to the compound number as indicated in Table 1 or Table 2 for Example or Compound Nos. 63-126.

Sequence of αvβ1 integrin (αvβ1 expressing CHO cells) (P06756 31-889): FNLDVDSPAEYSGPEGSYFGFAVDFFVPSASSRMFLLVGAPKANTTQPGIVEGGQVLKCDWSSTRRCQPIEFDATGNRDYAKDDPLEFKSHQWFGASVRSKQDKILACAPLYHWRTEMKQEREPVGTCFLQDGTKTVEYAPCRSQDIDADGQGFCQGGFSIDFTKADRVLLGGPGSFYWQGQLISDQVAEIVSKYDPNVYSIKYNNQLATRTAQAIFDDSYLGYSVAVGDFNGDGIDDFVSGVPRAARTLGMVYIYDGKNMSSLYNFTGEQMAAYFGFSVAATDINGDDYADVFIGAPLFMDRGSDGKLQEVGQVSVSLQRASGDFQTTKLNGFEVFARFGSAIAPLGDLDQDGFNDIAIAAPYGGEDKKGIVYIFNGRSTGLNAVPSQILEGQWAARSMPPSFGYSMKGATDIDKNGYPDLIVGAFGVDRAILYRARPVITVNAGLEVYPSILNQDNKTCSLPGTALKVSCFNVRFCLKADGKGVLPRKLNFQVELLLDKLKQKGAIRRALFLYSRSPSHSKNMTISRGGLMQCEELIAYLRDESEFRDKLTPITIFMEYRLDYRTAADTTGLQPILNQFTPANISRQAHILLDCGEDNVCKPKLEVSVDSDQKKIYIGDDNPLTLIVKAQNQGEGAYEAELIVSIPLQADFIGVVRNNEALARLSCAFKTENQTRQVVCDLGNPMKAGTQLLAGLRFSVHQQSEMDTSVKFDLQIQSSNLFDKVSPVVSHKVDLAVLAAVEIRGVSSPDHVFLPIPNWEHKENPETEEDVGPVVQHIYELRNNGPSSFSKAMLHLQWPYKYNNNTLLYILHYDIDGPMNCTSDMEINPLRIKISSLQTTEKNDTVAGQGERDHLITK
Sequence of αvβ1 integrin (αvβ1 expressing CHO cells) (P06756 891-1048 partner): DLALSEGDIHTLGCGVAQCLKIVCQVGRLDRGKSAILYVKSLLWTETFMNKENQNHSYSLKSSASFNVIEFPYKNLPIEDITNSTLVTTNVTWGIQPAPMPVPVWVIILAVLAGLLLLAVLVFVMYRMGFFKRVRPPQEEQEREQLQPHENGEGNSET
Sequence of αvβ1 integrin (αvβ1 expressing CHO cells) (P05556 21-798): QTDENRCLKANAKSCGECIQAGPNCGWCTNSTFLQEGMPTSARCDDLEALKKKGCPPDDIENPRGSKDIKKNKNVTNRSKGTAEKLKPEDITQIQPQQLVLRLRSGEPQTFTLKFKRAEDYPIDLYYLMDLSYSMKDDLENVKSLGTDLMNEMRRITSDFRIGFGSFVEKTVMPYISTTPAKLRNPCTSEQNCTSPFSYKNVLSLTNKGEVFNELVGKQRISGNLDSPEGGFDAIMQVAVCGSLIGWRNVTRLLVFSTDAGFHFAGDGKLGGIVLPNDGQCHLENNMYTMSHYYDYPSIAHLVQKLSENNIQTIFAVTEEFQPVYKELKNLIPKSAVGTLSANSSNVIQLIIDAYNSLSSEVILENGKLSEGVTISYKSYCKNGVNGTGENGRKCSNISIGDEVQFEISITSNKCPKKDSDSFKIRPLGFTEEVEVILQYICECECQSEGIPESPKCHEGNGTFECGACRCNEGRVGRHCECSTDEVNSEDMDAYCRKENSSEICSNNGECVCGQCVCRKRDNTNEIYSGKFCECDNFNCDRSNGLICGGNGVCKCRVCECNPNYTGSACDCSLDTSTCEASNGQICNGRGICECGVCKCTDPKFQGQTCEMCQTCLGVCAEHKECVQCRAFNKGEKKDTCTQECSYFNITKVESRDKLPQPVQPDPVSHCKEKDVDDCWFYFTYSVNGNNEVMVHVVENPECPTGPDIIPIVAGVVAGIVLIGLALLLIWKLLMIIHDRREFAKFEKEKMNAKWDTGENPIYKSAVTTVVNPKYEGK

IC50 | SMILES
< 50 nM | Cn1cc2cc(C(=O)N[C@@H](Cc3ccc(OCCCc4ccc5c(n4)NCCC5)cc3)C(=O)O)ccc2n1 [Example 45, (2S)-2-[(2-methylindazole-5-carbonyl)amino]-3-[4-[3-(5,6,7,8-tetrahydro-1,8-naphthyridin-2-yl)propoxy]phenyl]propanoic acid]
< 50 nM | O=C(N[C@@H](Cc1ccc(OCCCc2ccc3c(n2)NCCC3)cc1)C(=O)O)c1ccc2ocnc2c1 [Example 10, (S)-2-(benzo[d]oxazole-5-carboxamido)-3-(4-(3-(5,6,7,8-tetrahydro-1,8-naphthyridin-2-yl)propoxy)phenyl)propanoic acid]
> 1000 nM | CN1C(=O)CN=C1NCCCCCCCC[C@H](NC(=O)c1c(Cl)cccc1Cl)C(=O)O [Example 50, (S)-2-(2,6-dichlorobenzamido)-10-((1-methyl-5-oxo-4,5-dihydro-1H-imidazol-2-yl)amino)decanoic acid]
< 50 nM | O=CNc1cc(C(=O)N[C@@H](Cc2ccc(OCCCc3ccc4c(n3)NCCC4)cc2)C(=O)O)ccc1O [Example 12, (S)-2-(3-formamido-4-hydroxybenzamido)-3-(4-(3-(5,6,7,8-tetrahydro-1,8-naphthyridin-2-yl)propoxy)phenyl)propanoic acid]
< 50 nM | Cn1ncc2ccc(C(=O)N[C@@H](Cc3ccc(OCCCc4ccc5c(n4)NCCC5)cc3)C(=O)O)cc21 [Example 41, (2S)-2-[(1-methylindazole-6-carbonyl)amino]-3-[4-[3-(5,6,7,8-tetrahydro-1,8-naphthyridin-2-yl)propoxy]phenyl]propanoic acid]
50 to 250 nM | O=C(N[C@@H](CCCCCCCCNC1=NCCS1)C(=O)O)c1c(Cl)cccc1Cl [Example 49, (S)-2-(2,6-dichlorobenzamido)-10-((4,5-dihydrothiazol-2-yl)amino)decanoic acid]
< 50 nM | O=C(N[C@@H](CCCCCCCc1ccc2c(n1)NCCC2)C(=O)O)c1c(Cl)cccc1Cl [Example 19, (S)-2-(2,6-dichlorobenzamido)-9-(5,6,7,8-tetrahydro-1,8-naphthyridin-2-yl)nonanoic acid]
> 1000 nM | CN1CCN=C(NCCCCCCCC[C@H](NC(=O)c2c(Cl)cccc2Cl)C(=O)O)C1=O [Example 53, (S)-2-(2,6-dichlorobenzamido)-10-((4-methyl-3-oxo-3,4,5,6-tetrahydropyrazin-2-yl)amino)decanoic acid]
50 to 250 nM | O=C(NC(Cc1ccc(OCC2CCC(Nc3ccccn3)CC2)cc1)C(=O)O)c1c(Cl)cccc1Cl [Example 25, (S)-2-(2,6-dichlorobenzamido)-3-(4-(((1s,4R)-4-(pyridin-2-ylamino)cyclohexyl)methoxy)phenyl)propanoic acid]
< 50 nM | O=C(N[C@@H](Cc1ccc(COCCc2ccc3c(n2)NCCC3)cc1)C(=O)O)c1c(Cl)cccc1Cl [Example 29, (S)-2-(2,6-dichlorobenzamido)-3-(4-((2-(5,6,7,8-tetrahydro-1,8-naphthyridin-2-yl)ethoxy)methyl)phenyl)propanoic acid trifluoroacetate]
250 to 1000 nM | O=C(N[C@@H](CCCCCCCCNC1=NCCCS1)C(=O)O)c1c(Cl)cccc1Cl [Example 54, (S)-2-(2,6-dichlorobenzamido)-10-((5,6-dihydro-4H-1,3-thiazin-2-yl)amino)decanoic acid]
50 to 250 nM | Cc1nccc(C(=O)N[C@@H](Cc2ccc(OCCCc3ccc4c(n3)NCCC4)cc2)C(=O)O)n1 [Example 8, (S)-2-(2-methylpyrimidine-4-carboxamido)-3-(4-(3-(5,6,7,8-tetrahydro-1,8-naphthyridin-2-yl)propoxy)phenyl)propanoic acid]
< 50 nM | O=C(NC(Cc1ccc(OCCCC2Cc3cccnc3N2)cc1)C(=O)O)c1c(Cl)cccc1Cl (stereo not drawn) [Example 18, 2-(2,6-dichlorobenzamido)-3-(4-(3-(2,3-dihydro-1H-pyrrolo[2,3-b]pyridin-2-yl)propoxy)phenyl)propanoic acid]
50 to 250 nM | Nc1cc(C(=O)N[C@@H](Cc2ccc(OCCCc3ccc4c(n3)NCCC4)cc2)C(=O)O)ccc1O [Example 11, (S)-2-(3-amino-4-hydroxybenzamido)-3-(4-(3-(5,6,7,8-tetrahydro-1,8-naphthyridin-2-yl)propoxy)phenyl)propanoic acid]
50 to 250 nM | O=C(N[C@@H](Cc1ccc(OCC2(CNc3ccccn3)CC2)cc1)C(=O)O)c1c(Cl)cccc1Cl [Example 46, (2S)-2-((2,6-dichlorobenzoyl)amino)-3-(4-((1-((2-pyridylamino)methyl)cyclopropyl)methoxy)phenyl)propanoic acid]
< 50 nM | O=C(NC(Cc1ccc(O[C@H]2CC[C@@H](Nc3ccccn3)CC2)cc1)C(=O)O)c1c(Cl)cccc1Cl (stereo partly drawn) [Example 38, (2S)-2-[(2,6-dichlorobenzoyl)amino]-3-[4-[4-cis-(2-pyridylamino)cyclohexoxy]phenyl]propanoic acid]
< 50 nM | O=C(NC(Cc1ccc(OCC2CC(Nc3ccccn3)C2)cc1)C(=O)O)c1c(Cl)cccc1Cl [Example 23, (S)-2-(2,6-dichlorobenzamido)-3-(4-(((1s,3R)-3-(pyridin-2-ylamino)cyclobutyl)methoxy)phenyl)propanoic acid]

Further lines, the compound ahead of its results:

SMILES | IC50
Cn1cc2cc(C(=O)NC(CCCCCCCc3ccc4c(n3)NCCC4)C(=O)O)ccc2n1 (stereo not drawn) [Compound 86, 2-(2-methyl-2H-indazole-5-carboxamido)-9-(5,6,7,8-tetrahydro-1,8-naphthyridin-2-yl)nonanoic acid] | 50 to 250 nM
O=C(N[C@@H](Cc1ccc(OCCCCNC2=NCCS2)cc1)C(=O)O)c1c(Cl)cccc1Cl [Example 62, (S)-2-(2,6-dichlorobenzamido)-3-(4-(4-((4,5-dihydrothiazol-2-yl)amino)butoxy)phenyl)propanoic acid] | < 50 nM
O=C(N[C@@H](Cc1ccc(OCCCc2ccc3c(n2)NCCC3)cc1)C(=O)O)c1cncc(-c2ccccc2)n1 [Example 4, (S)-2-(6-phenylpyrazine-2-carboxamido)-3-(4-(3-(5,6,7,8-tetrahydro-1,8-naphthyridin-2-yl)propoxy)phenyl)propanoic acid] | > 1000 nM
O=C(N[C@@H](Cc1ccc(OCCCCNC2=NCCNC2)cc1)C(=O)O)c1c(Cl)cccc1Cl [Example 56, (S)-2-(2,6-dichlorobenzamido)-3-(4-(4-((3,4,5,6-tetrahydropyrazin-2-yl)amino)butoxy)phenyl)propanoic acid] | 250 to 1000 nM
N#Cc1ccc(Cl)c(C(=O)N[C@@H](CCCCCCCc2ccc3c(n2)NCCC3)C(=O)O)c1 [Compound 100] | < 50 nM
O=C(N[C@@H](CCCCCCCc1ccc2c(n1)NCCC2)C(=O)O)c1ccc(-c2cccnc2)cc1 [Compound 111] | 250 to 1000 nM
Cn1cc2cc(C(=O)N[C@@H](CCCCCCCc3ccc4c(n3)NCCC4)C(=O)O)ccc2n1 [Compound 109] | 50 to 250 nM
O=C(NC(CCCCCCCc1ccc2c(n1)NCCC2)C(=O)O)c1ccc2cn[nH]c2c1 (stereo not drawn) [Compound 98] | 50 to 250 nM
Cn1cnc2ccc(C(=O)N[C@@H](Cc3ccc(OCCCc4ccc5c(n4)NCCC5)cc3)C(=O)O)cc21 [Example 2, (S)-2-(1-methyl-1H-benzo[d]imidazole-6-carboxamido)-3-(4-(3-(5,6,7,8-tetrahydro-1,8-naphthyridin-2-yl)propoxy)phenyl)propanoic acid] | < 50 nM
CC(=O)N1CCN=C(NCCCCOc2ccc(C[C@H](NC(=O)c3c(Cl)cccc3Cl)C(=O)O)cc2)C1 [Example 55, (S)-3-(4-(4-((4-acetyl-3,4,5,6-tetrahydropyrazin-2-yl)amino)butoxy)phenyl)-2-(2,6-dichlorobenzamido)propanoic acid] | 50 to 250 nM
Cn1ncc2c(C(=O)N[C@@H](CCCCCCCc3ccc4c(n3)NCCC4)C(=O)O)cccc21 [Compound 115] | 250 to 1000 nM
N#Cc1ccc(C(=O)N[C@@H](CCCCCCCc2ccc3c(n2)NCCC3)C(=O)O)c(F)c1 [Compound 101] | < 50 nM
O=C(N[C@@H](CCCCCCCc1ccc2c(n1)NCCC2)C(=O)O)c1ccc2[nH]ncc2c1 [Compound 103] | 50 to 250 nM
Cn1ncc2cccc(C(=O)N[C@@H](CCCCCCCc3ccc4c(n3)NCCC4)C(=O)O)c21 [Compound 114] | < 50 nM
CN1CC(NCCCCOc2ccc(C[C@H](NC(=O)c3c(Cl)cccc3Cl)C(=O)O)cc2)=NCC1=O [Example 58, (S)-2-(2,6-dichlorobenzamido)-3-(4-(4-((4-methyl-5-oxo-3,4,5,6-tetrahydropyrazin-2-yl)amino)butoxy)phenyl)propanoic acid] | > 1000 nM
O=C(N[C@@H](Cc1ccc(OCCCCNC2=NCCCS2)cc1)C(=O)O)c1c(Cl)cccc1Cl [Example 60, (S)-2-(2,6-dichlorobenzamido)-3-(4-(4-((5,6-dihydro-4H-1,3-thiazin-2-yl)amino)butoxy)phenyl)propanoic acid] | < 50 nM
